# Read-outs that look alike come from different tables or passages of the source.
# Experiments:
# [1] = molecular target: human PDI (Homo sapiens (Human), UniProt P07237); experiment: Insulin turbidimetric assay of PDI reductase activity; type: biochemical
# Description: (§1) PDI inhibitors were evaluated in an insulin turbidimetric assay to assess their ability to block the reductase activity of PDI. The assay measured the aggregation of insulin chains by monitoring absorbance at 650 nm as previously described in Jasuja, R. et al. Protein disulfide isomerase inhibitors constitute a new class of antithrombotic agents. J Clin Invest 122, 2104-2113 (2012) (hereinafter “Jasija”). Cleavage of disulfide bonds within insulin by PDI results in aggregation of insulin. When PDI is inhibited, there is a decrease in aggregation of insulin, and therefore a decrease in absorbance signal at 650 nm. Recombinant human PDI expressed and purified from E. coli., mixed with bovine insulin (Sigma), and added to assay plates. The reaction mixture for insulin reduction assays contained 100 mM potassium phosphate, pH 7.4; 0.75 mM DTT, 2 mM EDTA, 0.1 mM bovine insulin, and 0.8 μM purified human PDI in a total volume of 135 μl in a 96 well plate. The progress of the reaction was monitored for 30 min at 23° C. Indicated inhibitors or control buffer was added prior to the addition of enzyme at the concentrations indicated. PDI activity in the presence of compound was determined by the formula, PDI activity (%)={OD(compound+PDI+DTT)−OD(DTT)}/{OD(PDI+DTT)−OD(DTT)}×100 % enzyme inhibition={1−(ODmax(compound+enzyme)/ODmax(buffer control+enzyme)}
# IC50 values were calculated using non-linear regression analysis.
# [2] = molecular target: Thioredoxin (Homo sapiens (Human), UniProt P10599); experiment: Insulin turbidimetric assay counter screen, thioredoxin; type: biochemical
# Description: as §1
# (§2) The insulin turbidimetric assay was used with alternative thiol isomerases to evaluate the specificity of inhibitors, as shown in Tables B and C. Other oxidoreductases used to evaluate the specificity of inhibitors include ERp5, thioredoxin (TR), and thioredoxin reductase (TRR).
# [3] = molecular target: Thioredoxin reductase; experiment: Insulin turbidimetric assay counter screen, thioredoxin reductase; type: biochemical
# Description: as §1, §2
# [4] = molecular target: ERp57 (Homo sapiens (Human), UniProt P30101); experiment: Insulin turbidimetric assay counter screen, ERp57; type: biochemical; conditions: Table B; read-out: Counter Screen: Selectivity against other thiol isomerases IC50 ERp57
# Description: as §1, §2
# [5] = molecular target: ERp5 (Homo sapiens (Human), UniProt Q15084); experiment: Insulin turbidimetric assay counter screen, ERp5; type: biochemical
# Description: as §1, §2
# [6] = Stability of PDI inhibitors in human plasma; type: in vitro ADME; conditions: 1 μM, room temperature
# Description: (§3) The stability of PDI inhibitors was measured in the presence of PBS pH 7.4 with 1% DMSO. PDI inhibitors were added to plasma (in triplicate at 1 μM) on six separate plates and allowed to equilibrate at room temperature for 48 hours. At each time point (0, 2, 4, 8, 24, and 48 hours), one plate was removed and an aliquot was taken out from each well and analyzed by UPLC-MS.
# [7] = Stability of PDI inhibitors in mouse plasma; type: in vitro ADME; conditions: 1 μM, room temperature
# Description: as §3
# [8] = test system: washed platelets; experiment: Platelet aggregation (SFLLRN-induced, washed platelets); type: cell-based; conditions: inhibition of platelet aggregation; compounds at 30 μM, 30 minutes at 37° C., SFLLRN-initiated
# Description: Platelet Rich Plasma (PRP) was prepared from whole blood obtained from individual donors and drawn into Acid Citrate Dextrose (ACD) at 15% of total volume. PGE-1 was added to a final concentration of 0.15 µM to maintain the resting state. PRP was spun at 1000 g×10 minutes and the supernatant was discarded. The platelet pellet was resuspended in Modified HEPES-Tyrodes buffer pH 7.3. The 1× washed platelets were incubated for 20 minutes at 37° C. until they were in a quiescent state. The above washing procedure was then repeated. The 2× washed platelets were allowed to rest for 20 minutes at 37° C. Platelets were then counted and the concentration of platelets in suspension was adjusted to 200,000 platelets/µL. The 2× washed platelets were treated with compounds at 30 µM, and were incubated for 30 minutes at 37° C. Following incubation, platelets were added to a cuvette and stirred at 37° C. in a Chrono-Log Platelet Aggregometer. In order to initiate aggregation, a concentration of SFLLRN, the thrombin receptor activating peptide, sufficient to elicit 60-70% light transmittance was added to the cuvette. Therefore, a range of 2-3 µM SFLLRN was used in order to accommodate small differences in sensitivity to SFLLRN between individual donors. Prior to reading, the aggregometer was scaled so that unstimulated, washed platelets are set to 0% light transmittance, and buffer alone with no platelets is set to 100% light transmittance. The light transmittance of each sample was recorded as a measure of aggregation. Data were recorded as a single point representing maximum aggregation in the presence of compound and were compared to samples exposed to vehicle (DMSO) alone. See Jasuja
# [9] = Table A, average of two independent experiments, read-out: PDI_Inhibition_ IC50
# [10] = Table B, read-out: PDI_ Inhibition_ IC50
# [11] = insulin reductase assay, recombinant human PDI, read-out: PDI_Inhibition_ IC50
# [12] = Table B, read-out: Counter Screen: Selectivity against other thiol isomerases IC50 Thioredoxin
# [13] = Table B, read-out: Counter Screen: Selectivity against other thiol isomerases IC50 Thioredoxin reductase
# [14] = Table B, read-out: Counter Screen: Selectivity against other thiol isomerases IC50 ERp5
# [15] = Table C, read-out: Specif. (ERp5, TR, TRR): ERp5
# [16] = Table C, read-out: Specif. (ERp5, TR, TRR): TR
# [17] = Table C, read-out: Specif. (ERp5, TR, TRR): TRR
# Chain of human PDI (P07237 18-508): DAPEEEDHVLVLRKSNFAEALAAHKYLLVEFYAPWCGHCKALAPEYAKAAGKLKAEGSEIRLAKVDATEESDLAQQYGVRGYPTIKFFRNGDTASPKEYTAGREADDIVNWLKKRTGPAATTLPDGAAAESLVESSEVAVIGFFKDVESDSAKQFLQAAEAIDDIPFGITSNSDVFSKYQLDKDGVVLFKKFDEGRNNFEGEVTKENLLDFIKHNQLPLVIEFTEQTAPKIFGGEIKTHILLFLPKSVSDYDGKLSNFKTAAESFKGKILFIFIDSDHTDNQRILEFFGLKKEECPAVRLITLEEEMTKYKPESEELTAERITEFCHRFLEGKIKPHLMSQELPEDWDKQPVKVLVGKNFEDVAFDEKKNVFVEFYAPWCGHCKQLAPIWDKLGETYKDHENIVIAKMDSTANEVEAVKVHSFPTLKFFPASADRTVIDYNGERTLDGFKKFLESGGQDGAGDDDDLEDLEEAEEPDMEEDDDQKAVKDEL
# Chain of ERp5 (Q15084 20-440, species assumed): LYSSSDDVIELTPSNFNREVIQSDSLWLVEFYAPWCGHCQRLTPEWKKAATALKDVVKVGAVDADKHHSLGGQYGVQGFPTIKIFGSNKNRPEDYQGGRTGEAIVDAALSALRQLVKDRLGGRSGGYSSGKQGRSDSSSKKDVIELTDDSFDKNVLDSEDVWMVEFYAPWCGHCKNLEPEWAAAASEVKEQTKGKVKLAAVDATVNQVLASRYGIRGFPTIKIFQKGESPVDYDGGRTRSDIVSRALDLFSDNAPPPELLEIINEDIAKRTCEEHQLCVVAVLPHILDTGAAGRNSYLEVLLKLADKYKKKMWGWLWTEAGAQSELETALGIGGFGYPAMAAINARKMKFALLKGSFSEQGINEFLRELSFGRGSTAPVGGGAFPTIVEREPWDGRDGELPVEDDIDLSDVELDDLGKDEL
# Chain of Thioredoxin (P10599 whole entry, species assumed): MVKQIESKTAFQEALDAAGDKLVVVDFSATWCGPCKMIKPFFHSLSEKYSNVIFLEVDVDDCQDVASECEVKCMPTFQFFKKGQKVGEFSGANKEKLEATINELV
# Chain of ERp57 (P30101 25-505, species assumed): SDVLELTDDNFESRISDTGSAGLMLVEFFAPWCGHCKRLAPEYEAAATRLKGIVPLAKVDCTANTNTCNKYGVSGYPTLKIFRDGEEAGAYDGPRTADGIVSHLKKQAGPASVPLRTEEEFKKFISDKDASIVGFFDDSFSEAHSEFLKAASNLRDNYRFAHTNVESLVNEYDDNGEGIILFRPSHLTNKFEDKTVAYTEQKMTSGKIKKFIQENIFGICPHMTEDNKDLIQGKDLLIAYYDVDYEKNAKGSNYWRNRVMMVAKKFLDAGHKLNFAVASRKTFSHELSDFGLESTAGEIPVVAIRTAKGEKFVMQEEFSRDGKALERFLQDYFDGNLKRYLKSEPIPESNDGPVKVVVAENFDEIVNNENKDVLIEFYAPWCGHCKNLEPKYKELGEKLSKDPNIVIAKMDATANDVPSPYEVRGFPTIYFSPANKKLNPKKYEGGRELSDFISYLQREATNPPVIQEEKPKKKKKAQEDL
Compound,"IC50 [1, 9] [µM]","IC50 [1, 10] [µM]","IC50 [1, 11] [µM]","IC50 [2, 12] [µM]","IC50 [3, 13] [µM]",IC50 [4] [µM],"IC50 ([1]; Table C, PDI, read-out: IC50) [µM]","IC50 [5, 14] [µM]","IC50 [5, 15] [µM]","IC50 [2, 16] [µM]","IC50 [3, 17] [µM]",Plasma stability human [6] [%],Plasma stability mouse [7] [%],Platelet Aggregation [8]
O=C(Nc1ccccc1)C1(CCOc2ccccc2)CCN(Cc2ccc(O)c(Cl)c2)CC1 [Compound 19],22.5,22.5,22.5,> 30,> 30,> 30,,,,,,,,
CCN(C)C(=O)C1(CCOc2ccccc2)CCN(Cc2ccc(O)c(Cl)c2)CC1 [Compound 16],3,3,3,> 30,> 30,> 30,,,,,,,,
CCNC(=O)C1(CCOc2ccccc2)CCN(Cc2ccc(O)c(Cl)c2)CC1 [Compound 15],> 30,,> 30,,,,,,,,,,,
O=C(NC1CCCC1)C1(CCOc2ccccc2)CCN(Cc2ccc(O)c(Cl)c2)CC1 [Compound 17],4,4,4,> 30,> 30,> 30,,,,,,,,
CCOC(=O)C1(CCOc2ccccc2)CCN(Cc2ccc(O)cc2)CC1 [Compound 7],,15,,> 30,> 30,> 30,,,,,,,,
CC(C)OC(=O)C1(CCOc2ccccc2)CCN(Cc2ccc(O)c(Cl)c2)CC1 [Compound 13],0.85,0.85,0.85,> 30,> 30,> 30,0.85,> 30,> 30,> 30,> 30,97.9,75.3,97%
CCOC(=O)C1(CCOc2ccccc2)CCN(Cc2ccc(OC)cc2)CC1 [Compound 6],> 30,,> 30,,,,,,,,,,,
O=C(N1CCCC1)C1(CCOc2ccccc2)CCN(Cc2ccc(O)c(Cl)c2)CC1 [Compound 18],> 30,,> 30,,,,,,,,,,,
C=CCOc1ccc(CN2CCC(CCOc3ccccc3)(C(=O)OCC)CC2)cc1Cl [Compound 5],> 30,,> 30,,,,,,,,,,,
CCOC(=O)C1(CCOc2ccccc2)CCN(C(=O)c2ccc(O)c(Cl)c2)CC1 [Compound 9],2.25,2.25,2.25,> 30,> 30,> 30,2.25,,> 30,> 30,> 30,100,100,100%
CCOC(=O)C1(CCOc2ccccc2)CCN(Cc2ccc(OC)c(Cl)c2)CC1 [Compound 4],> 30,> 30,> 30,> 30,> 30,> 30,,,,,,,,
CC(C)(C)OC(=O)C1(CCOc2ccccc2)CCN(Cc2ccc(O)c(Cl)c2)CC1 [Compound 14],0.65,0.65,0.65,> 30,> 30,> 30,0.65,> 30,> 30,> 30,> 30,98.7,95.6,100%
CCOC(=O)C1(CCOc2ccccc2)CCN(Cc2ccc3[nH]c(=O)oc3c2)CC1 [Compound 8],> 30,,> 30,,,,,,,,,,,
"CCOC(=O)C1(CCOc2ccccc2)CCN(Cc2ccc(O)c(Cl)c2)CC1 [Compound 1, Ethyl 1-(3-chloro-4-hydroxybenzyl)-4-(2-phenoxyethyl)piperidine-4-carboxylate]",0.25,0.25,0.25,> 30,> 30,> 30,0.3 to 0.6,> 30,> 30,> 30,> 30,100,5.3,25-50%

# From patent US10064853B2, “Compounds for use in methods for treating diseases or conditions mediated by protein disulfide isomerase” (Beth Israel Deaconess Medical Center, Inc., priority 2013, dated 2018)
